Consider two compounds from ChEMBL document CHEMBL1201862, “PubChem BioAssay data set” (2004).

Each structure is given as a SMILES string. Calls of active or inactive are those of the source.

One experiment concerns the target Genome polyprotein (dengue virus type 2, UniProt P29990). In words: flavivirus cap methylation enzyme inhibition – biochemical, confirmation dose response, primary screen (AID 588689). It is filed as functional.
For the next experiment, the target named is Caspase-7 (Homo sapiens, UniProt P55210). In words: caspase-7 enzyme inhibition, selectivity check – biochemical, DEVD-R110 fluorescence, cherry-pick, selectivity assay for caspase-6 inhibitor project, dose response (AID 743295). It is filed as functional.
Experiment [1] has as its target T1, Histone-lysine N-methyltransferase NSD2 (Homo sapiens, UniProt O96028).
T1 sequence (O96028 whole entry): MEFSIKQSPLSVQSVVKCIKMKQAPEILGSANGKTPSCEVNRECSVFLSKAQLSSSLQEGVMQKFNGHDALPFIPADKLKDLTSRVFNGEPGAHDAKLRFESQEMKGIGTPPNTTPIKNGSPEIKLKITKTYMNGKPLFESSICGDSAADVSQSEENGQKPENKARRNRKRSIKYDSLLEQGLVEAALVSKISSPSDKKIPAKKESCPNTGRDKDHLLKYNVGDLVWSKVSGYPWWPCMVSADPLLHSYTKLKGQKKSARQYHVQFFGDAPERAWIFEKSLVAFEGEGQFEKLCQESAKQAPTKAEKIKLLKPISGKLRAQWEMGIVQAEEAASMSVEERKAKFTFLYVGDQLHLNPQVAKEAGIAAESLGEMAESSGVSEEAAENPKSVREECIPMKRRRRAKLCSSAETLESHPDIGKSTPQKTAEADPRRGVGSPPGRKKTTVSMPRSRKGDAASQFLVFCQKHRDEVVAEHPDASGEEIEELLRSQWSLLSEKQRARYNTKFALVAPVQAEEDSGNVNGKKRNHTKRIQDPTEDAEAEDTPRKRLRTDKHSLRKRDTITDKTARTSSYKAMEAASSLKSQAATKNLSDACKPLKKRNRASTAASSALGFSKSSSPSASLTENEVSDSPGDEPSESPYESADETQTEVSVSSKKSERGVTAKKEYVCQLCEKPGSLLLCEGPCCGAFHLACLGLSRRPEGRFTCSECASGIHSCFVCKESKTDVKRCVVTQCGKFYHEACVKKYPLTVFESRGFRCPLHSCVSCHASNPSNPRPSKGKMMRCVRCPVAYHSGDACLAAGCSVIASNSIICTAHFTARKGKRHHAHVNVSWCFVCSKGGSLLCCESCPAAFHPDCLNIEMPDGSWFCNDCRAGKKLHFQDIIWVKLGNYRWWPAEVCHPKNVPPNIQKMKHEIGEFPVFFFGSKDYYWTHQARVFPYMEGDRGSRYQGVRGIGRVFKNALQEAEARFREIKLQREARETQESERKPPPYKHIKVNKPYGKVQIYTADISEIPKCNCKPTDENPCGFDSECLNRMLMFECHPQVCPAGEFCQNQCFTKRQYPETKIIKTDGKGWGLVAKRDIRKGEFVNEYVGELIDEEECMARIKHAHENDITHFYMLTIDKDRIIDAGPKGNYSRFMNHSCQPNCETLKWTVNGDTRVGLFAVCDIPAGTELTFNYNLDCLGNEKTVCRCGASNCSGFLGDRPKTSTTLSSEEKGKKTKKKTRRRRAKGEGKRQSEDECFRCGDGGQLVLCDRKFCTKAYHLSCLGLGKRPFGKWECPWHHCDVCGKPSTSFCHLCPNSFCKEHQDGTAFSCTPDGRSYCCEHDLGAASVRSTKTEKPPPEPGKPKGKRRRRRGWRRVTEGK
The experiment is classed as biochemical.

The target of experiment [2] is Small ubiquitin-related modifier 1 (Homo sapiens, UniProt P63165). In words: SUMO1 protein-protein binding blockers, potency – biochemical, FRET, dose response (AID 624383). The experiment is classed as functional. The following applies: read-out: IC50_Mean.
The next experiment concerns the target Caspase-8 (Homo sapiens, UniProt Q14790). In words: inhibitors of purified CASP8 protease – biochemical, Z-IETD-R110 fluorescence, cherry-picked samples, selectivity assay for caspase-6 inhibitor project, dose response (AID 743294).
In experiment [3] the target is T2, High affinity choline transporter 1 (Homo sapiens, UniProt Q9GZV3).
T2 sequence (Q9GZV3 whole entry): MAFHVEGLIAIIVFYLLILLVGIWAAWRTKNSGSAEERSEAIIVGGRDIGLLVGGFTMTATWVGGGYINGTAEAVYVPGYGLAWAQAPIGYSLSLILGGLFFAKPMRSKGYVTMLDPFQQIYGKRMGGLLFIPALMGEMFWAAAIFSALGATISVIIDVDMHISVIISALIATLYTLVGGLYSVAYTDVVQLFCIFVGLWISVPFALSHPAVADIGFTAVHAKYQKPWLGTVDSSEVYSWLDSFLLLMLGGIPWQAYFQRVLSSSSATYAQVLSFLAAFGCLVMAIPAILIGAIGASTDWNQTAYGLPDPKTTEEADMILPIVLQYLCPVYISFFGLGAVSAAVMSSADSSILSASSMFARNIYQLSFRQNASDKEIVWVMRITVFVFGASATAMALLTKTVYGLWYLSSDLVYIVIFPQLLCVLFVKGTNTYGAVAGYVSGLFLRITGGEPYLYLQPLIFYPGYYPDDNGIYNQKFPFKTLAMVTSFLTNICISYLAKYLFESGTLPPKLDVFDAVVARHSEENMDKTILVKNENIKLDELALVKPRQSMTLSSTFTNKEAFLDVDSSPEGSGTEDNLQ
Put plainly: human choline transporter blockers, potency – cell-based, 5-point CRC, membrane potential dye, dose response (AID 504840). The experiment is classed as functional.

A further experiment deals with Beta-galactosidase (Escherichia coli, UniProt Q8VNN2). The experiment is classed as functional.
The target in experiment [4] is Kappa-type opioid receptor (Homo sapiens, UniProt P41145). The experiment is classed as functional.
A short description of experiment [5]: viability loss in THP-1 monocytes – THP-1 cells, cytotoxicity control for Vif-APOBEC3G degradation inhibitor project, dose response (AID 1117359). The following applies: THP-1. It is filed as functional.
Another experiment deals with Mu-type opioid receptor (Homo sapiens, UniProt P35372). In words: HTS Image-Based Screen for Agonists of the MOR Receptor. [Related pubchem assays (depositor defined):AID1777, AID1785, AID1786, AID2133]. The experiment is classed as functional.
Sequence of Mu-type opioid receptor (P35372 whole entry): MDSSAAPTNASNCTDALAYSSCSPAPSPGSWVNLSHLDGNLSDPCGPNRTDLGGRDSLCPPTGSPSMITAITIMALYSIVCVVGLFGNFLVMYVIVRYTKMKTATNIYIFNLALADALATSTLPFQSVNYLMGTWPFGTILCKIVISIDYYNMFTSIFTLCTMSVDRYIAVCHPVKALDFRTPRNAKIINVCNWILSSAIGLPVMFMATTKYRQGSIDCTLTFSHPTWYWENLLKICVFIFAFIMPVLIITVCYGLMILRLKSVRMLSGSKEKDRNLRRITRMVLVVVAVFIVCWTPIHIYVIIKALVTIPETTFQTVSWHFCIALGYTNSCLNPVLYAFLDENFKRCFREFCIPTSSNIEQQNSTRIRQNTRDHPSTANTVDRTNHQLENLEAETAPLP

Sequence of Genome polyprotein (P29990 2492-3391 limits assumed): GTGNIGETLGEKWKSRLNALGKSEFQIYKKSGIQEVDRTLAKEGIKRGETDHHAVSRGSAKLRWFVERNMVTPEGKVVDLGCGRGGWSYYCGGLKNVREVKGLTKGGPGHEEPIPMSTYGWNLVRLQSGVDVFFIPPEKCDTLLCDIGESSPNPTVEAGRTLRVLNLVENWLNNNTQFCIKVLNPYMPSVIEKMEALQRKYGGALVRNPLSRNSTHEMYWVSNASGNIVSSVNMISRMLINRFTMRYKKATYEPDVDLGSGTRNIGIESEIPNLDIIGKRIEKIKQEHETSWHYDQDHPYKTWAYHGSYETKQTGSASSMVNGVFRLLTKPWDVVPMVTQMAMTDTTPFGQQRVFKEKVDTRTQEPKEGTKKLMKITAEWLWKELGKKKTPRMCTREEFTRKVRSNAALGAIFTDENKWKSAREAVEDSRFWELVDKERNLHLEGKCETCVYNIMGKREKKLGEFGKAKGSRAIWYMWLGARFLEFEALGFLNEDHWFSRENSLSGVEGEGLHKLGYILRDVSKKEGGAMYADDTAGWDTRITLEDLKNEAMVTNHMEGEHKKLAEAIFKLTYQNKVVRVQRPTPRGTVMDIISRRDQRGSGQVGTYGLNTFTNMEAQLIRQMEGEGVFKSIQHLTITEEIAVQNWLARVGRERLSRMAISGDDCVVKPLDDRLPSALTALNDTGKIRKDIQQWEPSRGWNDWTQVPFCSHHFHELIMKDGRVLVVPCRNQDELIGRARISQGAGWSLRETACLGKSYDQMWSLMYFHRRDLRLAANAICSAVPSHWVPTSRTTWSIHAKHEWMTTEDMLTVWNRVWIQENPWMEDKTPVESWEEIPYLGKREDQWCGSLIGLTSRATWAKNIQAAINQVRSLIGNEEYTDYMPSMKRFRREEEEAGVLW
Sequence of Beta-galactosidase (Q8VNN2 whole entry): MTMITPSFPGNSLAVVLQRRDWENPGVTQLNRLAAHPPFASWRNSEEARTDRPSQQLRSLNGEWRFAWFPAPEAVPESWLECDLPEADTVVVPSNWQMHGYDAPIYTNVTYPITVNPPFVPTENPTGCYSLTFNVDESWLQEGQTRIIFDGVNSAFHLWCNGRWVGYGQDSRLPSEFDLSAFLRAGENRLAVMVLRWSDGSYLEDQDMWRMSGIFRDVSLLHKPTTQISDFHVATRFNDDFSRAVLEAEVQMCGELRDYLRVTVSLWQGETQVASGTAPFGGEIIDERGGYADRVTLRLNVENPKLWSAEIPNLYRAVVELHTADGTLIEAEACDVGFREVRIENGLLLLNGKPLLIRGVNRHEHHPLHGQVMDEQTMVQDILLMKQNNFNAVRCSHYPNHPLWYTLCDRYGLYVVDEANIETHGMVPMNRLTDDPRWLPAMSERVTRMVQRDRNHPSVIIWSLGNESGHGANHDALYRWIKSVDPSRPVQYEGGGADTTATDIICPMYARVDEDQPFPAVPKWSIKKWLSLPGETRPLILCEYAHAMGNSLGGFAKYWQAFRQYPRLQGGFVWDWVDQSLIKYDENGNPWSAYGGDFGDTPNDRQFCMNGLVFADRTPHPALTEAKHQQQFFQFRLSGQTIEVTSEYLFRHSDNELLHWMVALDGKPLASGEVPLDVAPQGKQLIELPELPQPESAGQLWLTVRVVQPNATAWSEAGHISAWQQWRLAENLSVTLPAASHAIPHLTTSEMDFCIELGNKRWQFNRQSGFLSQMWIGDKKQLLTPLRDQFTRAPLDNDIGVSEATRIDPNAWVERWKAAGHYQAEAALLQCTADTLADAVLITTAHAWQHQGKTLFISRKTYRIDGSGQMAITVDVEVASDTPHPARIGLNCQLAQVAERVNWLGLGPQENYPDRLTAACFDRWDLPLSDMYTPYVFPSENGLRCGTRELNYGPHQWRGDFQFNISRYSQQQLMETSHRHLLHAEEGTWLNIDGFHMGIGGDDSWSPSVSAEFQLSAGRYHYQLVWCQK
Sequence of Small ubiquitin-related modifier 1 (P63165 whole entry): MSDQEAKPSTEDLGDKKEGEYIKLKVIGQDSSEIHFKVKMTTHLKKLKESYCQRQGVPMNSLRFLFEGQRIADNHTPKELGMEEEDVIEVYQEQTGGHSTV
Sequence of Caspase-7 (P55210 24-198 limits assumed): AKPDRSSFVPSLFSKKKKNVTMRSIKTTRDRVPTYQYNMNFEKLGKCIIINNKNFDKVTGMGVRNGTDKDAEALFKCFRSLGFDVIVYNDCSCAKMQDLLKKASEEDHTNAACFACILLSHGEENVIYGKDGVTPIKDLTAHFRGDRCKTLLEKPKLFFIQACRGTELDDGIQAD
Sequence of Caspase-7 (P55210 207-303 limits assumed): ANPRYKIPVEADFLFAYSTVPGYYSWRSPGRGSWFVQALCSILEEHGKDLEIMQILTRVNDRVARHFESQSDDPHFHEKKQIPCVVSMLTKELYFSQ
Sequence of Caspase-8 (Q14790 217-374 limits assumed): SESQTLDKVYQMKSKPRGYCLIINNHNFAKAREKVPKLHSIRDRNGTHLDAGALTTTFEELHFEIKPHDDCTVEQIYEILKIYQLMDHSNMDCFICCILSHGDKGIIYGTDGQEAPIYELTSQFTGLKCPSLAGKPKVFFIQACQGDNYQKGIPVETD
Sequence of Caspase-8 (Q14790 385-479 limits assumed): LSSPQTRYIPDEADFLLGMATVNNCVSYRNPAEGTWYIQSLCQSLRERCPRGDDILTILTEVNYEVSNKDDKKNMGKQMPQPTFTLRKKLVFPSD
Sequence of Kappa-type opioid receptor (P41145 whole entry): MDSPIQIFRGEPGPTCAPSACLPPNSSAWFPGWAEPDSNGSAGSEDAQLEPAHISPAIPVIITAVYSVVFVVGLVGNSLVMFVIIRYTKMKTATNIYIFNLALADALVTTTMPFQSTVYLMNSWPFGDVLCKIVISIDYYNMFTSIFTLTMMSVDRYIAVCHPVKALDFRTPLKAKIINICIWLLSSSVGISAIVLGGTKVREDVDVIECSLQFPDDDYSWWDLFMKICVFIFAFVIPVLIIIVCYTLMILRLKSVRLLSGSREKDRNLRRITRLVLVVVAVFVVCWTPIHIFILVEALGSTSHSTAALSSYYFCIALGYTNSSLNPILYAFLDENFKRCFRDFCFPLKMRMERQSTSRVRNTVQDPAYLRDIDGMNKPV

As usually defined, the AC50 is the concentration at which the activity in the assay is half-maximal. For the compound `O=S(=O)(O)c1cc(O)c2cc(Nc3ccccc3)ccc2c1`, the IC50 on Genome polyprotein is 19.4 µM (active); in experiment [2], 4.47 µM (active). Further, the AC50 was 30.2 µM (active) at Caspase-7, 1.8 µM (active) in experiment [1] and > 70 µM (inactive) at Caspase-8.
What is called EC50 is the midpoint of the concentration-response curve. The term CC50 denotes the concentration that lowers cell viability or growth by half. In the case of `O=[N+]([O-])c1c(Nc2ccccc2O)cc(Cl)c2nonc12`, the IC50 in experiment [3] is 13.2 µM (active); at Genome polyprotein, 9.7 µM (active); in experiment [4], 2.89 µM (active). For the same compound, the EC50 at Beta-galactosidase is > 31.5 µM (inactive); on Mu-type opioid receptor, > 32 µM (inactive). Moreover, the CC50 in experiment [5] is 12.2 µM (active).
